Data reported in ChEMBL document CHEMBL4196026, “Novel Tacrine-Hydroxyphenylbenzimidazole hybrids as potential multitarget drug candidates for Alzheimer's disease” (Eur J Med Chem, 2018).
pIC50, pKd: −log10 of the molar value. Calls of active or inactive are those of the source. The rule behind the calls is not given here.

How the values were obtained:
Acetylcholinesterase = Acetylcholinesterase (Electrophorus electricus, UniProt O42275); test: Inhibition of electric eel AChE using acetylthiocholine iodide as substrate preincubated for 15 mins followed by addition of substrate measured after 5 mins; details: for pIC50: read-out: IC50
Sequence of Acetylcholinesterase (O42275 whole entry): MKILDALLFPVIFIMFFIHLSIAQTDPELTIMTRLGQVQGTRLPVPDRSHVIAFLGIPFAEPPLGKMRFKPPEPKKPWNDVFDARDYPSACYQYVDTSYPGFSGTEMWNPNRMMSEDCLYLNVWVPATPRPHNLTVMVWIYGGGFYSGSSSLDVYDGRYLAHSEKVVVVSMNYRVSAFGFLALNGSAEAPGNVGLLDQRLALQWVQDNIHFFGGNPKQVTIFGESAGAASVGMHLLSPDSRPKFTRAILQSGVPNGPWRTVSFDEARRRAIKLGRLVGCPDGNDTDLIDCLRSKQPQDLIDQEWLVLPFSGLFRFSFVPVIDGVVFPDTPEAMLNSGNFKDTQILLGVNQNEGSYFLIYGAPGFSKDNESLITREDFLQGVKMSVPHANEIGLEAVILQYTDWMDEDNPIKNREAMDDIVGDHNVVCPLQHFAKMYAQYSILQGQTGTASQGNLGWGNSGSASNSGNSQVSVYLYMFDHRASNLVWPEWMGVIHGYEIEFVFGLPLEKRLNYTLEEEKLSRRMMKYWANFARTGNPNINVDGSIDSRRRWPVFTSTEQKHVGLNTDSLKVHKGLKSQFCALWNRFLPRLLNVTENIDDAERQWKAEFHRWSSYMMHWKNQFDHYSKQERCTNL

SH-SY5Y [1] = test: Neuroprotection against Fe/LAscH(-)-induced toxicity in human SH-SY5Y cells assessed as increase in cell viability at 1 uM preincubated for 1 hr followed by Fe/LAscH(-) addition and measured after 24 hrs MTT assay; type: functional, cell-based
SH-SY5Y [2] = test: Cytotoxicity against human SH-SY5Y cells assessed as reduction in cell viability at 1 uM after 24 hrs MTT assay; type: cell-based
SH-SY5Y [3] = test: Neuroprotection against amyloid beta (1 to 42)-induced toxicity in human SH-SY5Y cells assessed as increase in cell viability at 1 uM preincubated for 1 hr followed by amyloid beta (1 to 42) addition and measured after 24 hrs MTT assay; type: functional, cell-based
[4] = molecular target: Amyloid-beta precursor protein (Homo sapiens) (UniProt P05067); test: Inhibition of self-induced amyloid beta (1 to 42) (unknown origin) aggregation at 50 uM measured after 24 hrs by uranyl acetate staining based TEM analysis
Sequence of Amyloid-beta precursor protein (Homo sapiens) (P05067 whole entry): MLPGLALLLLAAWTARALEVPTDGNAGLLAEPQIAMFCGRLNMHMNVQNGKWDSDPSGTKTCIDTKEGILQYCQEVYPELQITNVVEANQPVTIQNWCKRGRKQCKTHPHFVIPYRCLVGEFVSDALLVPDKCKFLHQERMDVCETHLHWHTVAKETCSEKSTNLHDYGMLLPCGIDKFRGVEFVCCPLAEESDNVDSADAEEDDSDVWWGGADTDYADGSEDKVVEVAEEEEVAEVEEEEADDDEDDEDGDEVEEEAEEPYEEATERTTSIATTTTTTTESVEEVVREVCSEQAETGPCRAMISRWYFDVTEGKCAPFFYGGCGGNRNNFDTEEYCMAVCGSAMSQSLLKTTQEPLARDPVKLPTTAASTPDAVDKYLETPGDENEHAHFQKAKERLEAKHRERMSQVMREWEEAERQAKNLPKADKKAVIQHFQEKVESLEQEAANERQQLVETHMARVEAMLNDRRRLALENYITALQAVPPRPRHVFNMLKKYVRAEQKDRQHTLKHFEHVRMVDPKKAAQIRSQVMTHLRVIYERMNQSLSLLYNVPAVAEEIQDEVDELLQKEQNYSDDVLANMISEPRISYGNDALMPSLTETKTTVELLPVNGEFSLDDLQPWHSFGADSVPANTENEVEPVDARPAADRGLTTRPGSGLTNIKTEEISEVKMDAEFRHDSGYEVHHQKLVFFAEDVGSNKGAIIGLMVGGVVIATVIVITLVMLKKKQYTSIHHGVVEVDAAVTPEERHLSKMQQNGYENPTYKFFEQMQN

[5] = Copper chelating activity assessed as inhibition of Cu2+-induced amyloid beta (1 to 42) aggregation at 80 uM measured after 24 hrs by ThT fluorescence assay relative to control
[6] = Copper chelating activity assessed as inhibition of Cu2+-induced amyloid beta (1 to 42) aggregation at 50 uM measured after 24 hrs by uranyl acetate staining based TEM analysis
[7] = molecular target: Amyloid-beta precursor protein (Homo sapiens) (UniProt P05067); test: Inhibition of self-induced amyloid beta (1 to 42) (unknown origin) aggregation at 40 uM measured after 24 hrs by ThT fluorescence assay relative to control
[8] = Copper chelating activity assessed as inhibition of Cu2+-induced amyloid beta (1 to 42) aggregation at 40 uM measured after 24 hrs by ThT fluorescence assay relative to control
SH-SY5Y [9] = test: Neuroprotection against amyloid beta (1 to 42)-induced toxicity in human SH-SY5Y cells assessed as increase in cell viability at 0.1 uM preincubated for 1 hr followed by amyloid beta (1 to 42) addition and measured after 24 hrs MTT assay; type: functional, cell-based
[10] = Metal chelating activity assessed as compound-Cu2+ complex formation at pH 7.4
SH-SY5Y [11] = test: Neuroprotection against Fe/LAscH(-)-induced toxicity in human SH-SY5Y cells assessed as increase in cell viability at 0.1 uM preincubated for 1 hr followed by Fe/LAscH(-) addition and measured after 24 hrs MTT assay; type: functional, cell-based
SH-SY5Y [12] = test: Cytotoxicity against human SH-SY5Y cells assessed as reduction in cell viability at 0.1 uM after 24 hrs MTT assay; type: cell-based
SH-SY5Y [13] = test: Neuroprotection against amyloid beta (1 to 42)-induced toxicity in human SH-SY5Y cells assessed as increase in cell viability at 2.5 uM preincubated for 1 hr followed by amyloid beta (1 to 42) addition and measured after 24 hrs MTT assay; type: functional, cell-based
SH-SY5Y [14] = test: Cytotoxicity against human SH-SY5Y cells assessed as reduction in cell viability at 2.5 uM after 24 hrs MTT assay; type: cell-based
SH-SY5Y [15] = test: Neuroprotection against Fe/LAscH(-)-induced toxicity in human SH-SY5Y cells assessed as increase in cell viability at 2.5 uM preincubated for 1 hr followed by Fe/LAscH(-) addition and measured after 24 hrs MTT assay; type: functional, cell-based

SMILES: O=C(NCCCCNc1c2c(nc3cc(Cl)ccc13)CCCC2)c1ccc2[nH]c(-c3ccccc3O)nc2c1
- pIC50 (Acetylcholinesterase): 6.85
- Activity (SH-SY5Y [1]): Active
- Activity (SH-SY5Y [2]): Non-Toxic
- Activity (SH-SY5Y [3]): Active

SMILES: O=C(NCCCNc1c2c(nc3ccccc13)CCCC2)c1ccc2[nH]c(-c3ccccc3O)nc2c1
- pIC50 (Acetylcholinesterase): 7.51
- inhibition [4]: Active
- inhibition [5]: 77.3%
- inhibition [6]: Active

SMILES: O=C(NCCNc1c2c(nc3cc(Cl)ccc13)CCCC2)c1ccc2[nH]c(-c3ccccc3O)nc2c1
- pIC50 (Acetylcholinesterase): 8.20
- Activity (SH-SY5Y [1]): Active
- Activity (SH-SY5Y [2]): Non-Toxic
- Activity (SH-SY5Y [3]): inactive
- inhibition [7]: 21.9%
- inhibition [8]: 20.9%

SMILES: O=C(NCCCNc1c2c(nc3cc(Cl)ccc13)CCCC2)c1ccc2[nH]c(-c3ccccc3O)nc2c1
- pIC50 (Acetylcholinesterase): 7.63
- Activity (SH-SY5Y [9]): Active
- pKd [10]: 11.00
- Activity (SH-SY5Y [11]): Active
- inhibition [5]: 55.8%
- Activity (SH-SY5Y [12]): Non-Toxic

SMILES: O=C(NCCCCNc1c2c(nc3ccccc13)CCCC2)c1ccc2[nH]c(-c3ccccc3O)nc2c1
- pIC50 (Acetylcholinesterase): 6.68
- inhibition [5]: 65.5%

SMILES: O=C(NCC(O)CNc1c2c(nc3cc(Cl)ccc13)CCCC2)c1ccc2[nH]c(-c3ccccc3O)nc2c1 (centres undefined)
- pIC50 (Acetylcholinesterase): 7.74
- Activity (SH-SY5Y [1]): Active
- Activity (SH-SY5Y [2]): Non-Toxic
- Activity (SH-SY5Y [3]): Active

SMILES: O=C(NCCNc1c2c(nc3ccccc13)CCCC2)c1ccc2[nH]c(-c3ccccc3O)nc2c1
- pIC50 (Acetylcholinesterase): 7.44
- inhibition [5]: 49.4%

SMILES: Oc1ccccc1-c1nc2ccccc2[nH]1
- IC50 (Acetylcholinesterase): Not Active

SMILES: O=C(NCC(O)CNc1c2c(nc3ccccc13)CCCC2)c1ccc2[nH]c(-c3ccccc3O)nc2c1 (centres undefined)
- Activity (SH-SY5Y [13]): Active
- pIC50 (Acetylcholinesterase): 7.77
- Activity (SH-SY5Y [14]): Non-Toxic
- Activity (SH-SY5Y [15]): Active
- inhibition [5]: 59.5%
